Source: US9540620B2, “Methods and compositions for modulating G-alpha-Q signaling” (The University of North Carolina at Chapel Hill, priority 2012, dated 2017)
Entries after “also recorded” stand apart in the source; their conditions may differ. Values belong to the molecule of their own block, whether it stands above or below them. Ends that are not written are not given here. Peptide text beside a SMILES is read from it. * marks the point of attachment. X1 = CN(C)c1ccc2c(-c3ccc(C(=O)*)cc3C(=O)[O-])c3ccc(=[N+](C)C)cc-3oc2c1

Key:
Gαq/i = assay: Fluorescence polarization assay in 384 well plates, competition with TAMRA-27-mer; type: binding; settings: 30 μM, 200 nM TAMRA-27-mer, 1.5 μM Gαq/i
Protocol: FIG. 4. Fluorescence polarization assay in 384 well plates. Each well contains 200 nM TAMRA-27-mer and 1.5 μM Gαq/i. Z′-factor determined using 48 wells+/−aluminum fluoride (AlF4). Unlabeled 27-mer (30 μM) added to an additional 48 wells. Coefficient of variance range between 1 and 4 percent.
To begin to develop a high-throughput format suitable for screening large libraries of compounds, the original fluorescence polarization assay was formatted to use microtiter plates (FIG. 4). The initial reconfiguration to use 384-well plates is highly promising, providing a high dynamic range as defined by the difference in fluorescence polarization of the TAMRA-27-mer in the presence of Gαq-GDP either alone or activated with aluminum fluoride. The high dynamic range combined with low variance produced a Z′-factor of approximately 0.8. An assay with a Z′-factor above 0.5 is generally required for useful high-throughput screening^19; a Z′-factor above 0.8 is generally considered excellent. Moreover, the addition of 30 μM of unlabeled 27-mer competed with the TAMRA-27-mer for binding to Gαq leading to an approximately 50 percent decrease in fluorescence polarization.

[1] = tested on: G-alpha-q mediated activation of PLC-beta; assay: 5HT2A/DOI-stimulated [3H]inositol phosphate accumulation in transiently transfected HEK293 cells; type: cell-based; settings: DOI 1-2 microMolar (FIG. 10)
Protocol: FIG. 10. […] HEK293 cells transfected with 100 ng of 5HT2A and stimulated with 1-2 microMolar of DOI (Synonym: (±)-DOI, (±)-1-(2,5-Dimethoxy-4-iodophenyl)-2-aminopropane hydrochloride, (±)-2,5-Dimethoxy-4-iodoamphetamine hydrochloride) were assayed for [^3H]inositol phosphate accumulation. The control for no DOI stimulation for the CFP-HTH-YFP sample is shown as dashed line (A) and triangle (B). Where indicated HEK293 cells were transfected with varying amounts of PLC constructs.
This experiment is a proof of principle to inhibit G-alpha-q with adeno-associated virus (AAV) to treat uveal melanoma patients. Future experiments will use a retrovirus containing the 27 residue helix-turn-helix in primary uveal melanoma cells to induce apoptosis and inhibit the progression of the uveal melanoma.
The 27mer construct used is between two fluorescent proteins YFP and CFP yielding: YFP-HTH(27mer)-CFP. The 27mer sequence is
A CaaX box was attached to the YFP-HTH(27mer)-CFP to keep this molecule at the membrane. The CaaX box sequence is at the very C-terminal end and are the residues CAIL (SEQ ID NO:36).

[2] = molecular target: T1, Gαq activated with aluminum fluoride (Homo sapiens, UniProt P50148); assay: Fluorescence polarization binding of TAMRA-labeled PLC-β3 HTH peptides to Gαq; settings: Gαq-GDP without added aluminum fluoride
T1 sequence (P50148 1-359): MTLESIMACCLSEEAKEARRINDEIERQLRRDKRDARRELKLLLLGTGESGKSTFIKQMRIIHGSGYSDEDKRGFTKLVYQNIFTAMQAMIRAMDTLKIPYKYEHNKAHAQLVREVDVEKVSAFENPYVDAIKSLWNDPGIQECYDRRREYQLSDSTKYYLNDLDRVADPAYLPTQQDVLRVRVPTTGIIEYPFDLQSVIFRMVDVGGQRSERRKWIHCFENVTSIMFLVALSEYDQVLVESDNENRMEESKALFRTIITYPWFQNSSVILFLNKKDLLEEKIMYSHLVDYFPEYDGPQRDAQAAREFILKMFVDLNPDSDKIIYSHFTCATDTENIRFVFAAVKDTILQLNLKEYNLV
Protocol: (§1) FIGS. 6A-C. Quantification of Gαq binding to peptides corresponding to the HTH of PLβ3. […] The structures of PLCβ3 (3 OHM) and p63RhoGEF (2RGN) bound to Gαq were superimposed and a single Gαq is shown. Immediately below is shown the sequence alignment of PLCβ3 (SEQ ID NO:37) and p63RhoGEF (SEQ ID NO:41) encompassing the helix-turn-helix. Underlined residues are labeled in the structure. […] (FIG. 6C) Increasing concentrations of unlabeled PLC-β3 were added to a solution of labeled 25-mer (400 nM) and Gαq (4 μM). KD and IC50 values were derived from three independent experiments.

activated Gαs = activated Gαs (Homo sapiens, UniProt P63092); assay: Fluorescence polarization binding of TAMRA-labeled peptide to activated Gαs
activated Gαs, sequence (P63092 whole entry): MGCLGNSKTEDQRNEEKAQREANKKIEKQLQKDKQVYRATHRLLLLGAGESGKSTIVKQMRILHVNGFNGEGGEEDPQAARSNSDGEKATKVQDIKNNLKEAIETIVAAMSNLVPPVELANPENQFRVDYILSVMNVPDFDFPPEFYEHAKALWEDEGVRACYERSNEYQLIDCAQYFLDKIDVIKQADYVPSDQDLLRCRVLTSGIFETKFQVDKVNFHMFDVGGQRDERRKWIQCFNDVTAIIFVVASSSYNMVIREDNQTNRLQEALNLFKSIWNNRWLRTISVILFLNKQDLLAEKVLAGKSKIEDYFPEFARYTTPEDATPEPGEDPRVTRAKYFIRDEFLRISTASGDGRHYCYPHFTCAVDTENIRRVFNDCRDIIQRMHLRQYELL

activated GαI = assay: Fluorescence polarization binding of TAMRA-labeled peptide to activated Gαi
activated Gαo = activated Gαo (Homo sapiens, UniProt P09471); assay: Fluorescence polarization binding of TAMRA-labeled peptide to activated Gαo
activated Gαo, sequence (P09471 whole entry): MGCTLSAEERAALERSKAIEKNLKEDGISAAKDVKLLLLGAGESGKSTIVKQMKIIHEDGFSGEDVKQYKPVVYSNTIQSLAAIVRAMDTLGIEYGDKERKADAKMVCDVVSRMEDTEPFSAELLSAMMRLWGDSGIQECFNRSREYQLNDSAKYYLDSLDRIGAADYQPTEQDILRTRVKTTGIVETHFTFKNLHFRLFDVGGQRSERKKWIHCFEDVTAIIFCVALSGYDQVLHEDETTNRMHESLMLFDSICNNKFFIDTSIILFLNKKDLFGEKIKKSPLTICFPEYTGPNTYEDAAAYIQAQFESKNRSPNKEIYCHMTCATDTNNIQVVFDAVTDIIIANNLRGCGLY

Gαq = molecular target: T2, Gαq (Homo sapiens, UniProt P50148); assay: Fluorescence polarization competition: unlabeled PLC-β3 against TAMRA-labeled peptide for Gαq; type: binding
T2 sequence (P50148 1-359): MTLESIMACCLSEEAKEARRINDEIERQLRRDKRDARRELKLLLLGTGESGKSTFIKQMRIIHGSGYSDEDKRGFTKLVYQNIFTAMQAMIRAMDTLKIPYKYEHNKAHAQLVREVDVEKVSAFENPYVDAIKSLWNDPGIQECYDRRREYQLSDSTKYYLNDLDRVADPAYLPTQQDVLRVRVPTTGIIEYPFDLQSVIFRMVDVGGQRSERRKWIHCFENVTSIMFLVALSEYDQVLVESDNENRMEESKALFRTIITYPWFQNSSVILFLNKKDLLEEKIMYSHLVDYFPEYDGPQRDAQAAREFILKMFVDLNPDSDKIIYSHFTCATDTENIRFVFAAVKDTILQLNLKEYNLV
Protocol: FIGS. 3A and 3B. TAMRA-27-mer and PLC-β3 directly compete for Gαq. (FIG. 3A) Increasing concentrations of PLC-β3 were added to a solution of TAMRA-27-mer (400 nM) and Gαq (800 nM). The IC50 value is derived from three independent experiments. (FIG. 3B) Phospholipase activity of PLC-β3 activated by Gαq using lipid vesicles and inhibited by increasing concentrations of TAMRA-27-mer.
as §1
Fluorescence polarization will be used to monitor disruption of complex formation between the 27-mer and active Gαq to identify compounds that directly compete with the complex. It is expected that the majority of these compounds will sit within the canonical effector-binding site of Gαq to prevent the binding of peptide—and by extension, prevent the binding of effectors. However, before using this assay format to identify inhibitors of complex formation it was necessary to insure that peptides corresponding to the HTH of PLC-β3 bound to Gαq. […] These experiments strongly support that peptides corresponding to the HTH of PLC-β3 directly bind to the effector pocket of Gαq and can be used as surrogates of effectors in assays of complex formation with active Gαq.
The most promising peptide consisted of 25 residues (TAMRA-25-mer) spanning the entire HTH and bound to G-alpha-q with appreciable affinity (Kd˜6 microMolar).

Molecule: HQDYAEALANPIKHVSL-Nle-DQRARQLAA [unlabeled 27-mer]
decrease in fluorescence polarization (Gαq/i): approximately 50%

Molecule: CFP-27mer(I860A)-YFP: 27mer HQDYAEALANPIKHVSLMDQRARQLAA between fluorescent proteins YFP and CFP, C-terminal CaaX box CAIL, expressed by transient transfection (HQDYAEALANPIKHVSLMDQRARQLAACAIL; also: fused between fluorescent proteins YFP and CFP)
inhibition of G-alpha-q signaling after transient transfection [1]: inhibits G-alpha-q mediated activation of PLC-beta | inhibition of G-alpha-q signaling after transient transfection ([1]; listed as 27 residue helix-turn-helix peptide): inhibited G-alpha-q signaling

Molecule: CC[C@H](C)[C@H](NC(=O)[C@H](CC(C)C)NC(=O)[C@H](C)NC(=O)[C@H](CCC(=O)O)NC(=O)[C@H](C)NC(=O)[C@H](Cc1ccc(O)cc1)NC(=O)[C@H](CC(=O)O)NC(=O)[C@H](CCC(N)=O)NC(=O)[C@H](Cc1c[nH]cn1)NC(=O)c1ccc(-c2c3ccc(=[N+](C)C)cc-3oc3cc(N(C)C)ccc23)c(C(=O)[O-])c1)C(=O)N[C@@H](CC(N)=O)C(=O)N1CCC[C@H]1C(=O)N[C@H](C(=O)N[C@@H](CCCCN)C(=O)N[C@@H](Cc1c[nH]cn1)C(=O)N[C@H](C(=O)N[C@@H](CO)C(=O)N[C@@H](CC(C)C)C(=O)N[C@@H](CCSC)C(=O)N[C@@H](CC(=O)O)C(=O)N[C@@H](CCC(N)=O)C(=O)N[C@@H](CCCNC(=N)N)C(=O)N[C@@H](C)C(=O)N[C@@H](CCCNC(=N)N)C(=O)N[C@@H](CCC(N)=O)C(=O)N[C@@H](CC(C)C)C(=O)O)C(C)C)[C@@H](C)CC [TAMRA-25-mer] (X1-HQDYAEALINPIKHVSLMDQRARQL-OH; C-terminus assumed)
complex formation with inactive Gαq-GDP / dependence on aluminum fluoride activation [2]: dependent on the activation of G-alpha-q with aluminum fluoride; also recorded: dependent on the activation of Gαq with aluminum fluoride | binding to activated Gαs (activated Gαs): failed to bind; also recorded: neither activated Gαs, GαI, nor Gαo bound the peptide | binding to activated Gαi (activated GαI): failed to bind; also recorded: neither activated Gαs, GαI, nor Gαo bound the peptide | binding to activated Gαo (activated Gαo): failed to bind; also recorded: neither activated Gαs, GαI, nor Gαo bound the peptide

competition with the 27-mer for binding to Gαq (Gαq; TAMRA-27-mer 400 nM, Gαq 800 nM): could not compete | effect on TAMRA-25-mer binding to Gαq (Gαq; at concentrations as high as 35 μM): no effect
B1: PLC-β3(L859E): mutant full-length PLC-β3 with single substitution L859E in its HTH that does not bind Gαq (protein)
chain: AGAQPGVHALQLEPPTVVETLRRGSKFIKWDEETSSRNLVTLRVDPNGFFLYWTGPNMEVDTLDISSIRDTRTGRYARLPKDPKIREVLGFGGPDARLEEKLMTVVSGPDPVNTVFLNFMAVQDDTAKVWSEELFKLAMNILAQNASRNTFLRKAYTKLKLQVNQDGRIPVKNILKMFSADKKRVETALESCGLKFNRSESIRPDEFSLEIFERFLNKLCLRPDIDKILLEIGAKGKPYLTLEQLMDFINQKQRDPRLNEVLYPPLRPSQARLLIEKYEPNQQFLERDQMSMEGFSRYLGGEENGILPLEALDLSTDMTQPLSAYFINSSHNTYLTAGQLAGTSSVEMYRQALLWGCRCVELDVWKGRPPEEEPFITHGFTMTTEVPLRDVLEAIAETAFKTSPYPVILSFENHVDSAKQQAKMAEYCRSIFGDALLIEPLDKYPLAPGVPLPSPQDLMGRILVKNKKRHRPSAGGPDSAGRKRPLEQSNSALSESSAATEPSSPQLGSPSSDSCPGLSNGEEVGLEKPSLEPQKSLGDEGLNRGPYVLGPADREDEEEDEEEEEQTDPKKPTTDEGTASSEVNATEEMSTLVNYIEPVKFKSFEAARKRNKCFEMSSFVETKAMEQLTKSPMEFVEYNKQQLSRIYPKGTRVDSSNYMPQLFWNVGCQLVALNFQTLDVAMQLNAGVFEYNGRSGYLLKPEFMRRPDKSFDPFTEVIVDGIVANALRVKVISGQFLSDRKVGIYVEVDMFGLPVDTRRKYRTRTSQGNSFNPVWDEEPFDFPKVVLPTLASLRIAAFEEGGKFVGHRILPVSAIRSGYHYVCLRNEANQPLCLPALLIYTEASDYIPDDHQDYAEAEINPIKHVSLMDQRARQLAALIGESEAQAGQETCQDTQSQQLGSQPSSNPTPSPLDASPRRPPGPTTSPASTSLSSPGQRDDLIASILSEVAPTPLDELRGHKALVKLRSRQERDLRELRKKHQRKAVTLTRRLLDGLAQAQAEGRCRLRPGALGGAADVEDTKEGEDEAKRYQEFQNRQVQSLLELREAQVDAEAQRRLEHLRQALQRLREVVLDANTTQFKRLKEMNEREKKELQKILDRKRHNSISEAKMRDKHKKEAELTEINRRHITESVNSIRRLEEAQKQRHDRLVAGQQQVLQQLAEEEPKLLAQLAQECQEQRARLPQEIRRSLLGEMPEGLGDGPLVACASNGHAPGSSGHLSGADSESQEENTQL
